Laboratory results: patent US6821980B1, “Substituted 5-benzyl-2,4-diaminopyrimidines” (Basilea Pharmaceutica AG, priority 1999, dated 2004)
≈ marks a conversion by molar mass, not a printed value. Read-outs that look alike come from different tables or passages of the source.

Assays:
[1] = tested on: Streptococcus pneumoniae 1/1; assay: MIC against Streptococcus pneumoniae 1/1; type: cell-based; details: Streptococcus pneumoniae 1/1, trimethoprim- and penicillin-resistant, serotype 6, clinical isolate; for MIC: read-out: MIC Sp1/1
[2] = tested on: Staphylococcus aureus 101; assay: MIC against Staphylococcus aureus 101; type: cell-based; details: Staphylococcus aureus 101, MRSA- and trimethoprim-resistant, clinical isolate; for MIC: read-out: MIC Sa101
[3] = target: T1, purified DHFR of strain Sp1/1 of Streptococcus pneumoniae (Streptococcus pneumoniae serotype 4, UniProt Q54801); type: biochemical; details: IC50 against purified DHFR of strain Sp1/1
T1 sequence (Q54801 1-168 I100L): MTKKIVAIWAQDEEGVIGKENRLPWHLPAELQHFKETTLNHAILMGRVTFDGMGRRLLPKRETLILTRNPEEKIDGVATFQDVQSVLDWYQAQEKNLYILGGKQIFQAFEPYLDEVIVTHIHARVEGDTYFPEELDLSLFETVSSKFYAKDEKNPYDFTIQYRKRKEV

[4] = target: purified DHFR of strain 157/4696 of Staphylococcus aureus (Staphylococcus aureus, UniProt P13955); assay: biochemical
purified DHFR of strain 157/4696 of Staphylococcus aureus, sequence (P13955 whole entry): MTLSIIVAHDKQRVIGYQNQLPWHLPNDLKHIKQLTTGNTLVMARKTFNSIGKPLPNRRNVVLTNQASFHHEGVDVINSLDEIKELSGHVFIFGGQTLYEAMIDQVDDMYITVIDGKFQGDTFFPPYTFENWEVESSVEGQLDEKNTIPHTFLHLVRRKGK

[5] = Table 2, IC50 against purified DHFR of strain 157/4696 (highly trimethoprim-resistant; clinical isolate), read-out: DHFR Sa1

SMILES	MIC ([1]; Table 2)	MIC ([2]; Table 2)	IC50 ([3]; Table 2)	IC50 [4]	MIC Sp1/1 ([1]; Table 2)	MIC Sa101 ([2]; Table 2)	IC50 [4, 5]	MIC ([1]; Table 1)	MIC ([2]; Table 1)	IC50 ([3]; Table 1)
CCOc1cc(Cc2cnc(N)nc2N)cc(OCC)c1-c1cccc(NS(C)(=O)=O)c1 [Example 44-, N-[4′-(2,4-Diamino-pyrimidin-5-ylmethyl)-2′,6′-diethoxy-biphenyl-3-yl]-methanesulphonamide]	2 µg/mL (≈ 4.37 µM)	8 µg/mL (≈ 17.5 µM)	18 nM	680 nM						
CCOc1cc(Cc2cnc(N)nc2N)cc(OS(=O)(=O)N(C)C)c1-c1ccc(O)cc1 [Example 20-a, Dimethyl-sulphamic acid 4-(2,4-diamino-pyrimidin-5-ylmethyl)-6-ethoxy-4′-hydroxy-biphenyl-2-yl ester]	1 µg/mL (≈ 2.18 µM)	2 µg/mL (≈ 4.35 µM)	7.5 nM	150 nM						
CCOc1cc(Cc2cnc(N)nc2N)cc(OS(=O)(=O)N2CCCC2)c1-c1cccc(N)c1 [Example 19-c, Pyrrolidine-1-sulphonic acid 3′-amino-4-(2,4-diamino-pyrimidin-5-vlmethyl)-6-ethoxy-biphenyl-2-yl ester]	1 µg/mL (≈ 2.06 µM)	2 µg/mL (≈ 4.13 µM)	19 nM	66 nM						
CCOc1cc(Cc2cnc(N)nc2N)cc(OCC)c1-c1ccc2cc(O)ccc2c1 [Example 02-f, 6-[4-(2,4-Diamino-pyrimidin-5-ylmethyl)-2,6-diethoxy-phenyl]-naphthalen-2-ol]	4 µg/mL (≈ 9.29 µM)	4 µg/mL (≈ 9.29 µM)	28 nM	1700 nM						
CCOc1cc(Cc2cnc(N)nc2N)cc(OCC)c1-c1ccc(CN2CCOCC2)s1 [Example 02-ac, 5-f3,5-Diethoxy-4-(5-morpholin-4-ylmethyl-thiophen-2-yl)-benzyl-pyrimidine-2,4-diamine]	2 µg/mL (≈ 4.26 µM)	8 µg/mL (≈ 17 µM)	65 nM	650 nM						
CCCS(=O)(=O)Oc1cc(Cc2cnc(N)nc2N)cc(OCC)c1-c1ccc(N)c(F)c1 [Example 32-e, Propane-1-sulphonic acid 4′-amino-4-(2,4-diamino-pyrimidin-5-ylmethyl)-6-ethoxy-3′-fluoro-4-ylmethyl-biphenyl-2-yl ester]			6.8 nM		1 µg/mL (≈ 2.1 µM)	4 µg/mL (≈ 8.41 µM)	280 nM			
CCOc1cc(Cc2cnc(N)nc2N)cc(OCC)c1-c1ccc(C)cc1 [Example 02-q, 5-(2,6-Diethoxy-4′-methyl-biphenyl-4-ylmethyl)-pyrimidine-2,4-diamine]	8 µg/mL (≈ 21.1 µM)	4 µg/mL (≈ 10.6 µM)	79 nM	1100 nM						
CCOc1cc(Cc2cnc(N)nc2N)cc(OCC)c1-c1ccc(N)c(OC)c1 [Example 04-l, 5-(4′-Amino-2,6-diethoxy-3′-methoxy-biphenyl-4-ylmethyl)-pyrimidine-2,4-diamine]	4 µg/mL (≈ 9.77 µM)	8 µg/mL (≈ 19.5 µM)	82 nM	1900 nM						
CCOc1cc(Cc2cnc(N)nc2N)cc(OC2CCCC2COC)c1-c1ccc(O)cc1 (racemic) [Example 08-v, rac-(E)-5-[6-Ethoxy-4′-hydroxy-2-(2-methoxymethyl-cyclopentyloxy)-biphenyl-4-ylmethyl]-pyrimidine-2,4-diamine]	2 µg/mL (≈ 4.31 µM)	8 µg/mL (≈ 17.2 µM)	82 nM	1500 nM						
CCOc1cc(Cc2cnc(N)nc2N)cc(OS(=O)(=O)CC(C)C)c1-c1ccc(O)cc1 [Example 15-f, 2-Methyl-propane-1-sulphonic acid 4-(2,4-diamino-pyrimidin-5-ylmethyl)-6-ethoxy-4′-hydroxy-biphenyl-2-yl ester]	0.5 µg/mL (≈ 1.06 µM)	4 µg/mL (≈ 8.46 µM)	6.7 nM	380 nM						
CCOc1cc(Cc2cnc(N)nc2N)cc(OCC)c1-c1ccc(CNCC(F)(F)F)cc1 [Example 04-v, 5-[2,6-Diethoxy-4′-[(2,2,2-trifluoroethylamino)-methyl]-biphenyl-4-ylmethyl]-pyrimidine-2,4-diamine]	4 µg/mL (≈ 8.41 µM)	8 µg/mL (≈ 16.8 µM)	150 nM	1300 nM						
CCOc1cc(Cc2cnc(N)nc2N)cc(OCC)c1-c1ccc(COCC(=O)N2CCOCC2)s1 [Example 03-a, 2-[5-[4-(2,4-Diamino-pyrimidin-5-ylmethyl)-2,6-diethoxy-phenyl]-thiophen-2-ylmethoxyl]-1-morpholin-4-yl-ethanone]	2 µg/mL (≈ 3.79 µM)	8 µg/mL (≈ 15.2 µM)	31 nM	1800 nM						
CCOc1cc(Cc2cnc(N)nc2N)cc(OCC)c1-c1ccc2c(c1)NCCO2 [Example 02-h, 5-[4-(3,4-Dihydro-2H-benzo[1.4]oxazin-6-yl)-3,5-diethoxy-benzyl]-pyrimidine-2,4-diamine]	4 µg/mL (≈ 9.49 µM)	8 µg/mL (≈ 19 µM)	38 nM	1200 nM						
CCOc1cc(Cc2cnc(N)nc2N)cc(OCC(C)C)c1-c1ccc2c(c1)OCO2 [Example 10-c, 5-(4-Benzo[1,3]dioxol-5-yl-3-ethoxy-5-isobutoxy-benzyl)-pyrimidine-2,4-diamine]	4 µg/mL (≈ 9.16 µM)	8 µg/mL (≈ 18.3 µM)	11 nM	5000 nM						
CCOc1cc(Cc2cnc(N)nc2N)cc(OCC)c1-c1cccc(C#N)c1 [Example 02-u, 4′-(2,4-Diamino-pyrimidin-5-ylmethyl)-2′,6′-diethoxy-biphenyl-3-carbonitrile]	4 µg/mL (≈ 10.3 µM)	8 µg/mL (≈ 20.5 µM)	180 nM	4000 nM						
CCOc1cc(Cc2cnc(N)nc2N)cc(OCCc2ccccn2)c1-c1ccc(O)cc1 [Example 08-g, 4′-(2,4-Diamino-pyrimidin-5-ylmethyl)-6′-ethoxy-2′-(2-pyridin-2-yl-ethoxy)-biphenyl-4-ol]	4 µg/mL (≈ 8.74 µM)	8 µg/mL (≈ 17.5 µM)	52 nM	1300 nM						
CCOc1cc(Cc2cnc(N)nc2N)cc(OCC)c1-c1cccc(OCCOC)c1 [Example 50-, 5-[2,6-Diethoxy-3′-(2-methoxy-ethoxy)-biphenyl-4-ylmethyl]-pyrimidine-2,4-diamine]	4 µg/mL (≈ 9.12 µM)	8 µg/mL (≈ 18.2 µM)	32 nM	10000 nM						
CCOc1cc(Cc2cnc(N)nc2N)cc(OCC2(CC#N)CC2)c1-c1cccc(N)c1 [Example 07-b, {1-[3′-Amino-4-(2,4-diamino-pyrimidin-5-ylmethyl)-6-ethoxy-biphenyl-2-yloxymethyl]-cydopropyl}-acetonitrile]	2 µg/mL (≈ 4.5 µM)	8 µg/mL (≈ 18 µM)	36 nM	950 nM						
CCOc1cc(Cc2cnc(N)nc2N)cc(OCC)c1-c1ccc(CNCCF)cc1 [Example 04-ag, 5-{2,6-Diethoxy-4′-[(2-fluoro-ethylamino)-methyl]-biphenyl-4-ylmethyl}-pyrimidine-2,4-diamine]	8 µg/mL (≈ 18.2 µM)	8 µg/mL (≈ 18.2 µM)	350 nM	1800 nM						
CCOc1cc(Cc2cnc(N)nc2N)cc(OS(=O)(=O)C(C)CC)c1-c1ccc(N)cc1 (centres unmarked) [Example 35a, Butane-2-sulphonic acid 4′-amino-4-(2,4-diamino-pyrimidin-5-ylmethyl)-6ethoxy-biphenyl-2-yl ester]				110 nM				0.5 µg/mL (≈ 1.06 µM)	2 µg/mL (≈ 4.24 µM)	3.7 nM
CCCOc1cc(Cc2cnc(N)nc2N)cc(OCCC)c1-c1cccc(O)c1 [Example 52-, 4′-(2,4-Diamino-pyrimidin-5-ylmethyl)-2′,6′-digropobiphenyl-3-ol]	1 µg/mL (≈ 2.45 µM)	8 µg/mL (≈ 19.6 µM)	20 nM	5800 nM						
CCOc1cc(Cc2cnc(N)nc2N)cc(OC2CCCC2)c1-c1cccc(N)c1 [Example 07-d, 5-(3′-Amino-6-cycloventloxy-2-ethoxy-biphenyl-4-ylmethyl)-pyrimidine-2,4-diamine]	1 µg/mL (≈ 2.38 µM)	4 µg/mL (≈ 9.53 µM)	8.2 nM	680 nM						
CCOc1cc(Cc2cnc(N)nc2N)cc(OCC)c1-c1ccc(COCC(=O)N2CCCCC2)s1 [Example 03-c, 2-[5-[4-(2,4-Diamino-pyrimidin-5-ylmethyl)-2,6-diethoxy-phenyl]-thionhen-2-ylmethoxy]-1-piperidin-1-yl-ethanone]	2 µg/mL (≈ 3.8 µM)	8 µg/mL (≈ 15.2 µM)	11 nM	2000 nM						
CCOc1cc(Cc2cnc(N)nc2N)cc(OCC)c1-c1ccc(N)c(F)c1 [Example 04-r, 5-(4′-Amino-2,6-diethoxy-3′-fluoro-biphenyl-4-3dmethyl)-Ryrimidine-2,4-diamine]	4 µg/mL (≈ 10.1 µM)	8 µg/mL (≈ 20.1 µM)	85 nM	3200 nM						
CCOc1cc(Cc2cnc(N)nc2N)cc(OS(=O)(=O)N(C)C)c1-c1ccc(C)c(N)c1 [Example 31a, Dimethylsulphamic acid 3′-amino-4-(2,4-diamino-pyrimidin-5-ylmethyl)-6-ethoxy-4′-methyl-biphenyl-2-yl ester]				110 nM				1 µg/mL (≈ 2.12 µM)	1 µg/mL (≈ 2.12 µM)	1.9 nM
CCOc1cc(Cc2cnc(N)nc2N)cc(OCC2(CCC#N)CC2)c1-c1ccc(O)cc1 [Example 47-, 3-{1-[4-(2,4-Diamino-pyrimidin-5-yjmethyl)-6-ethoxy-4′-hydroxy-biphenyl-2-loxymethyl]-cycloprropyl}-propionitrile]			10 nM		2 µg/mL (≈ 4.35 µM)	8 µg/mL (≈ 17.4 µM)	1200 nM			
